Laboratory results published in ChEMBL document CHEMBL1201862, “PubChem BioAssay data set” (2004).
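Following 48 hours of exposure in 96-well plates, responses at five concentrations were used to interpolate endpoints linearly. GI50 marks 50% less growth.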 Active and inactive are the calls of the source. No stated cut-off is given here; in the data, active = GI50 up to about 1.1 µM and inactive = higher.

What was measured:
Test in all cases: NCI tumour cell line growth inhibition, 48 h
COLO 205 = test system: COLO 205
TK-10 = test system: TK-10
T47D = test system: T47D
SF-295 = test system: SF-295
UO-31 = test system: UO-31
SNB-75 = test system: SNB-75
HL-60 = test system: HL-60
MDA-N = test system: MDA-N
CCRF-CEM = test system: CCRF-CEM
HCT-15 = test system: HCT-15
MCF7 = test system: MCF7
EKVX = test system: EKVX
HT-29 = test system: HT-29
SN12C = test system: SN12C
HCT-116 = test system: HCT-116
786-0 = test system: 786-0
OVCAR-4 = test system: OVCAR-4
CAKI-1 = test system: CAKI-1
Malme-3M = test system: Malme-3M
BT-549 = test system: BT-549

O=C1CN(c2cccc(C(F)(F)F)c2)C(=O)CN1NCNN1CC(=O)N(c2cccc(C(F)(F)F)c2)CC1=O
GI50 (COLO 205): > 100 µM (inactive) | GI50 (TK-10): > 100 µM (inactive) | GI50 (T47D): > 100 µM (inactive) | GI50 (SF-295): > 100 µM (inactive) | GI50 (UO-31): > 100 µM (inactive) | GI50 (SNB-75): > 100 µM (inactive) | GI50 (HL-60): > 100 µM (inactive) | GI50 (MDA-N): > 100 µM (inactive) | GI50 (CCRF-CEM): > 100 µM (inactive) | GI50 (HCT-15): > 100 µM | GI50 (MCF7): > 100 µM (inactive) | GI50 (EKVX): > 100 µM (inactive) | GI50 (HT-29): > 100 µM (inactive) | GI50 (SN12C): > 100 µM (inactive) | GI50 (HCT-116): > 100 µM (inactive) | GI50 (786-0): > 100 µM (inactive)

COc1c(C(=O)c2ccc([N+](=O)[O-])cc2)cc(C(C)(C)C)cc1C(C)(C)C
GI50 (TK-10): 13.8 µM (inactive) | GI50 (SF-295): 39.1 µM (inactive) | GI50 (UO-31): 40.8 µM (inactive) | GI50 (SNB-75): 74.5 µM (inactive) | GI50 (HL-60): 13.9 µM (inactive) | GI50 (CCRF-CEM): 26.7 µM (inactive) | GI50 (HCT-15): 32 µM | GI50 (EKVX): 47.4 µM (inactive) | GI50 (HT-29): 28.7 µM (inactive) | GI50 (SN12C): 39 µM (inactive) | GI50 (OVCAR-4): 43.1 µM (inactive) | GI50 (HCT-116): 18.8 µM (inactive) | GI50 (786-0): 40.9 µM (inactive) | GI50 (CAKI-1): 41.6 µM (inactive) | GI50 (Malme-3M): 26.5 µM (inactive)

C1=N\CCN2CCN(CC/N=C\c3ccc(cc3)OCc3cccc(n3)COc3ccc/1cc3)CC2
GI50 (COLO 205): > 50 µM (inactive) | GI50 (TK-10): > 50 µM (inactive) | GI50 (SF-295): 46.2 µM (inactive) | GI50 (UO-31): > 50 µM (inactive) | GI50 (SNB-75): > 50 µM (inactive) | GI50 (HL-60): > 50 µM (inactive) | GI50 (CCRF-CEM): > 50 µM (inactive) | GI50 (HCT-15): > 50 µM | GI50 (MCF7): > 50 µM (inactive) | GI50 (EKVX): > 50 µM (inactive) | GI50 (BT-549): > 50 µM (inactive) | GI50 (HT-29): > 50 µM (inactive) | GI50 (SN12C): > 50 µM (inactive) | GI50 (OVCAR-4): > 50 µM (inactive) | GI50 (HCT-116): > 50 µM (inactive) | GI50 (786-0): > 50 µM (inactive) | GI50 (Malme-3M): 26.9 µM (inactive)

O=[N+]([O-])c1cccc(C2ON2C2CCCCC2)c1 (stereo not drawn)
GI50 (COLO 205): 17.6 µM (inactive) | GI50 (TK-10): 30.3 µM (inactive) | GI50 (SF-295): > 100 µM (inactive) | GI50 (UO-31): 22.6 µM (inactive) | GI50 (SNB-75): 38.5 µM (inactive) | GI50 (HL-60): 17.5 µM (inactive) | GI50 (CCRF-CEM): 4.88 µM (inactive) | GI50 (HCT-15): 16.9 µM | GI50 (EKVX): 44 µM (inactive) | GI50 (HT-29): 11.5 µM (inactive) | GI50 (SN12C): 18.3 µM (inactive) | GI50 (OVCAR-4): 17.8 µM (inactive) | GI50 (HCT-116): 13.5 µM (inactive) | GI50 (786-0): 17.4 µM (inactive) | GI50 (CAKI-1): 24.2 µM (inactive) | GI50 (Malme-3M): 22.8 µM (inactive)

CCOC(=O)/C(C#N)=C\C=C1/C=CN=C2NCCN21
GI50 (COLO 205): > 100 µM (inactive) | GI50 (TK-10): > 100 µM (inactive) | GI50 (SF-295): > 100 µM (inactive) | GI50 (UO-31): > 100 µM (inactive) | GI50 (SNB-75): 14.4 µM (inactive) | GI50 (HL-60): > 100 µM (inactive) | GI50 (CCRF-CEM): > 100 µM (inactive) | GI50 (HCT-15): > 100 µM | GI50 (EKVX): > 100 µM (inactive) | GI50 (HT-29): > 100 µM (inactive) | GI50 (SN12C): > 100 µM (inactive) | GI50 (OVCAR-4): > 100 µM (inactive) | GI50 (HCT-116): > 100 µM (inactive) | GI50 (786-0): > 100 µM (inactive) | GI50 (CAKI-1): > 100 µM (inactive) | GI50 (Malme-3M): > 100 µM (inactive)

C(=N\Nc1ccccc1)/c1nc2ccccc2nc1/C=N/Nc1ccccc1
GI50 (TK-10): 15.8 µM (inactive) | GI50 (SF-295): 16.2 µM (inactive) | GI50 (UO-31): 32.2 µM (inactive) | GI50 (SNB-75): 12.2 µM (inactive) | GI50 (HL-60): 31 µM (inactive) | GI50 (CCRF-CEM): 23.6 µM (inactive) | GI50 (HCT-15): 4.39 µM | GI50 (EKVX): 22.1 µM (inactive) | GI50 (HT-29): 10.8 µM (inactive) | GI50 (SN12C): 16.2 µM (inactive) | GI50 (OVCAR-4): 27.8 µM (inactive) | GI50 (HCT-116): 12.7 µM (inactive) | GI50 (786-0): 15.6 µM (inactive) | GI50 (CAKI-1): 7.71 µM (inactive) | GI50 (Malme-3M): 24.9 µM (inactive)

Cc1cc2c(cc1C)NC(=O)C(NC(=O)/C=C/c1ccccc1)C=N2 (stereo not drawn)
GI50 (COLO 205): 18.1 µM (inactive) | GI50 (TK-10): 50.6 µM (inactive) | GI50 (SF-295): 50.8 µM (inactive) | GI50 (UO-31): 29.6 µM (inactive) | GI50 (SNB-75): 44.1 µM (inactive) | GI50 (HL-60): 21.9 µM (inactive) | GI50 (CCRF-CEM): 3.56 µM (inactive) | GI50 (HCT-15): 17.7 µM | GI50 (EKVX): > 100 µM (inactive) | GI50 (SN12C): 38.8 µM (inactive) | GI50 (OVCAR-4): 38.9 µM (inactive) | GI50 (HCT-116): 20.8 µM (inactive) | GI50 (786-0): 30.3 µM (inactive) | GI50 (CAKI-1): 31.3 µM (inactive) | GI50 (Malme-3M): 35.9 µM (inactive)

COC(=O)C1=C(O)C(O)=C(C(=O)OC)CC1
GI50 (COLO 205): > 100 µM (inactive) | GI50 (TK-10): > 100 µM (inactive) | GI50 (SF-295): > 100 µM (inactive) | GI50 (UO-31): > 100 µM (inactive) | GI50 (SNB-75): > 100 µM (inactive) | GI50 (HL-60): > 100 µM (inactive) | GI50 (CCRF-CEM): > 100 µM (inactive) | GI50 (HCT-15): > 100 µM | GI50 (EKVX): > 100 µM (inactive) | GI50 (HT-29): > 100 µM (inactive) | GI50 (SN12C): > 100 µM (inactive) | GI50 (OVCAR-4): > 100 µM (inactive) | GI50 (HCT-116): 15.1 µM (inactive) | GI50 (786-0): > 100 µM (inactive) | GI50 (CAKI-1): > 100 µM (inactive) | GI50 (Malme-3M): > 100 µM (inactive)

C[n+]1c(-c2ccc(/C=N/NC(=S)N/N=C/c3ccc(-c4cn5ccsc5[n+]4C)cc3)cc2)cn2ccsc21
GI50 (COLO 205): > 100 µM (inactive) | GI50 (TK-10): > 100 µM (inactive) | GI50 (T47D): > 100 µM (inactive) | GI50 (SF-295): > 100 µM (inactive) | GI50 (UO-31): > 100 µM (inactive) | GI50 (SNB-75): > 100 µM (inactive) | GI50 (HL-60): > 100 µM (inactive) | GI50 (MDA-N): 45.2 µM (inactive) | GI50 (CCRF-CEM): 36.6 µM (inactive) | GI50 (HCT-15): > 100 µM | GI50 (MCF7): > 100 µM (inactive) | GI50 (EKVX): > 100 µM (inactive) | GI50 (HT-29): 75.5 µM (inactive) | GI50 (SN12C): > 100 µM (inactive) | GI50 (OVCAR-4): > 100 µM (inactive) | GI50 (HCT-116): > 100 µM (inactive) | GI50 (786-0): > 100 µM (inactive)
